This is an account of results in ChEMBL document CHEMBL4706673, “The study on structure-activity relationship between chromone derivatives and inhibition of superoxide anion generating from human neutrophils” (Bioorg Med Chem Lett, 2021).

pIC50: −log10 of the molar value. Calls of active or inactive are those of the source. The rule behind the calls is not given here. Some results are limits rather than exact numbers.

One assay deals with Neutrophil. The assay can be described thus: Inhibition of elastase release in fMLF/CB-stimulated human neutrophil at 10 µM.
Assay [1] in a line: Inhibition of fMLF/CB-induced superoxide anion generation in human neutrophil at 10 uM relative to control. Format: functional.
Assay [2] can be described thus: Inhibition of fMLF/CB-induced superoxide anion generation in human neutrophil. Format: functional, tissue-based.

Consider `COc1cc2oc(Sc3cccc(F)c3)cc(=O)c2c(OC)c1OC`, for which the inhibition result in the assay on Neutrophil is “inactive”. In addition, the inhibition at 10 µM in assay [1] was determined as 47.5%. The molecule also had a pIC50 in assay [2] below 5.00.
In the case of `COc1cc(OC)c2c(=O)cc(Sc3cccc(F)c3)oc2c1`, the inhibition result in the assay with Neutrophil was “inactive”. In addition, the inhibition at 10 µM in assay [1] worked out at 61%. This molecule gave a pIC50 in assay [2] of 5.15.
For `COc1ccc2c(=O)cc(Oc3ccccc3OC)oc2c1`, in the assay on Neutrophil, the inhibition entry was “inactive”. For the same molecule, the inhibition at 10 µM in assay [1] came out at 3.8%. Further, in assay [2], the pIC50 was below 5.00.
The matching figures for `COc1ccc2c(=O)cc(Oc3ccc(O)c(OC)c3)oc2c1`: “inactive”, 71.3% and 5.28.
As to `COc1ccc2c(=O)cc(Oc3cccc(O)c3)oc2c1`, the inhibition result with Neutrophil is “inactive”. In addition, the inhibition at 10 µM in assay [1] was found to be 6.9%. In assay [2], this molecule showed a pIC50 below 5.00.
With `COc1cc(OC)c2c(=O)cc(Oc3ccc(OC)c(OC)c3)oc2c1`, in the assay with Neutrophil, the inhibition result was “inactive”. The inhibition at 10 µM in assay [1] turned out to be 7.8%. The negative-log IC50 (pIC50) in assay [2] was below 5.00.
As to `COc1cc(OC)cc(Oc2cc(=O)c3c(OC)cccc3o2)c1`, in the assay on Neutrophil, the inhibition result is “inactive”. In assay [1], the inhibition at 10 µM is -0.4%. In addition, the negative-log IC50 (pIC50) in assay [2] is below 5.00.
In the case of `COc1cccc2oc(Sc3cccc(F)c3)cc(=O)c12`, the inhibition entry in the assay with Neutrophil was “inactive”. Further, the inhibition at 10 µM in assay [1] was determined as 10.6%. This molecule gave a pIC50 in assay [2] below 5.00.
On to `COc1cccc(Oc2cc(=O)c3c(OC)cc(OC)cc3o2)c1`, for which the inhibition result with Neutrophil was “inactive”. Moreover, the inhibition at 10 µM in assay [1] was 22.4%. The molecule also gave a pIC50 in assay [2] below 5.00.
As for `COc1ccc2c(=O)cc(Sc3cccc(F)c3)oc2c1`, the inhibition result with Neutrophil is “inactive”. Besides, the inhibition at 10 µM in assay [1] came to 70.9%. The molecule also showed a pIC50 in assay [2] of 5.30.
As to `O=c1cc(N2CCOCC2)oc2c(-c3ccccc3)cccc12` [LY-294002], the inhibition at 10 µM in assay [1] was 93.4%. The pIC50 in assay [2] is 5.89.
Regarding `COc1ccc(Oc2cc(=O)c3c(OC)cccc3o2)cc1OC`, the inhibition result in the assay on Neutrophil is “inactive”. Moreover, the inhibition at 10 µM in assay [1] amounted to 12.8%. Moreover, the pIC50 in assay [2] is below 5.00.
The matching figures for `COc1cccc(Oc2cc(=O)c3ccc(OC)cc3o2)c1`: “inactive”, 46.8% and below 5.00.
As to `COc1cc(OC)cc(Oc2cc(=O)c3c(OC)cc(OC)cc3o2)c1`, the inhibition entry in the assay with Neutrophil is “inactive”. Also, the inhibition at 10 µM in assay [1] worked out at 27.5%. The molecule also gave a pIC50 in assay [2] below 5.00.
Regarding `COc1ccc2oc(Sc3cccc(F)c3)cc(=O)c2c1`, the inhibition result in the assay on Neutrophil was “inactive”. In addition, in assay [1], the inhibition at 10 µM was found to be 17.3%. This molecule also showed a negative-log IC50 (pIC50) in assay [2] below 5.00.
As to `COc1cc(OC)c2c(=O)cc(Oc3ccccc3OC)oc2c1`, the inhibition result with Neutrophil is “inactive”. In assay [1], the inhibition at 10 µM amounted to 2.5%. In assay [2], this molecule gave a pIC50 below 5.00.
